Experimental data from the supplement of paper PMC10307832.

Key:
Test in all cases: relative viability (nuclei count vs DMSO), 5 days (fraction); higher = more cells survive
201T = tested on: 201T
Procedure, shortened: (§1)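 Lung cancer cell lines were pin-tool dosed in 1536-well plates on the day after seeding, with either a lone drug or a fixed anchor-drug dose plus five library-drug doses (not always all listed) in √10 steps. Nuclei were counted on 4× images after 5 days. Relative viability is the ratio of treated-well to vehicle-well nuclei counts, with each value a median of duplicate plates.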

COR-L23 = tested on: COR-L23
Procedure, shortened: as §1

EPLC-272H = tested on: EPLC-272H
Procedure, shortened: as §1

H3255 = tested on: H3255
Procedure, shortened: as §1

HCC-15 = tested on: HCC-15
Procedure, shortened: as §1

LOU-NH91 = tested on: LOU-NH91
Procedure, shortened: as §1

NCI-H1650 = tested on: NCI-H1650
Procedure, shortened: as §1

NCI-H1734 = tested on: NCI-H1734
Procedure, shortened: as §1

NCI-H1793 = tested on: NCI-H1793
Procedure, shortened: as §1

NCI-H2023 = tested on: NCI-H2023
Procedure, shortened: as §1

NCI-H2170 = tested on: NCI-H2170
Procedure, shortened: as §1

NCI-H2347 = tested on: NCI-H2347
Procedure, shortened: as §1

NCI-H2405 = tested on: NCI-H2405
Procedure, shortened: as §1

NCI-H3122 = tested on: NCI-H3122
Procedure, shortened: as §1

NCI-H322M = tested on: NCI-H322M
Procedure, shortened: as §1

NCI-H441 = tested on: NCI-H441
Procedure, shortened: as §1

NCI-H520 = tested on: NCI-H520
Procedure, shortened: as §1

NCI-H647 = tested on: NCI-H647
Procedure, shortened: as §1

PC-14 = tested on: PC-14
Procedure, shortened: as §1

SW 900 = tested on: SW 900
Procedure, shortened: as §1

UMC-11 = tested on: UMC-11
Procedure, shortened: as §1

SMILES: CCN(CC)CCCCNc1ncc2cc(-c3cc(OC)cc(OC)c3)c(NC(=O)NC(C)(C)C)nc2n1 + Cc1cc(Nc2cc(N3CCN(C)CC3)nc(Sc3ccc(NC(=O)C4CC4)cc3)n2)n[nH]1 [Tozasertib] (partner 0.1 µM)
- relative viability (201T; first compound 0.01 µM): 0.995
- relative viability (201T; first compound 0.03162 µM): 0.992
- relative viability (201T; first compound 0.1 µM): 0.979
- relative viability (201T; first compound 0.3162 µM): 1.02
- relative viability (201T; first compound 1 µM): 0.721
- relative viability (COR-L23; first compound 0.01 µM): 0.226
- relative viability (COR-L23; first compound 0.03162 µM): 0.205
- relative viability (COR-L23; first compound 0.1 µM): 0.157
- relative viability (COR-L23; first compound 0.3162 µM): 0.206
- relative viability (COR-L23; first compound 1 µM): 0.171
- relative viability (EPLC-272H; first compound 0.01 µM): 0.282
- relative viability (EPLC-272H; first compound 0.03162 µM): 0.314
- relative viability (EPLC-272H; first compound 0.1 µM): 0.279
- relative viability (EPLC-272H; first compound 0.3162 µM): 0.212
- relative viability (EPLC-272H; first compound 1 µM): 0.234
- relative viability (H3255; first compound 0.01 µM): 0.91
- relative viability (H3255; first compound 0.03162 µM): 0.654
- relative viability (H3255; first compound 0.1 µM): 0.544
- relative viability (H3255; first compound 0.3162 µM): 0.607
- relative viability (H3255; first compound 1 µM): 0.585
- relative viability (HCC-15; first compound 0.01 µM): 0.45
- relative viability (HCC-15; first compound 0.03162 µM): 0.311
- relative viability (HCC-15; first compound 0.1 µM): 0.428
- relative viability (HCC-15; first compound 0.3162 µM): 0.342
- relative viability (HCC-15; first compound 1 µM): 0.247
- relative viability (LOU-NH91; first compound 0.01 µM): 0.613
- relative viability (LOU-NH91; first compound 0.03162 µM): 0.684
- relative viability (LOU-NH91; first compound 0.1 µM): 0.697
- relative viability (LOU-NH91; first compound 0.3162 µM): 0.677
- relative viability (LOU-NH91; first compound 1 µM): 0.574
- relative viability (NCI-H1650; first compound 0.01 µM): 0.362
- relative viability (NCI-H1650; first compound 0.03162 µM): 0.305
- relative viability (NCI-H1650; first compound 0.1 µM): 0.392
- relative viability (NCI-H1650; first compound 0.3162 µM): 0.361
- relative viability (NCI-H1650; first compound 1 µM): 0.247
- relative viability (NCI-H1734; first compound 0.01 µM): 0.136
- relative viability (NCI-H1734; first compound 0.03162 µM): 0.257
- relative viability (NCI-H1734; first compound 0.1 µM): 0.3
- relative viability (NCI-H1734; first compound 0.3162 µM): 0.244
- relative viability (NCI-H1734; first compound 1 µM): 0.243
- relative viability (NCI-H1793; first compound 0.01 µM): 0.311
- relative viability (NCI-H1793; first compound 0.03162 µM): 0.367
- relative viability (NCI-H1793; first compound 0.1 µM): 0.362
- relative viability (NCI-H1793; first compound 0.3162 µM): 0.348
- relative viability (NCI-H1793; first compound 1 µM): 0.241
- relative viability (NCI-H2023; first compound 0.01 µM): 0.323
- relative viability (NCI-H2023; first compound 0.03162 µM): 0.428
- relative viability (NCI-H2023; first compound 0.1 µM): 0.401
- relative viability (NCI-H2023; first compound 0.3162 µM): 0.41
- relative viability (NCI-H2023; first compound 1 µM): 0.222
- relative viability (NCI-H2170; first compound 0.01 µM): 0.619
- relative viability (NCI-H2170; first compound 0.03162 µM): 0.77
- relative viability (NCI-H2170; first compound 0.1 µM): 0.747
- relative viability (NCI-H2170; first compound 0.3162 µM): 0.755
- relative viability (NCI-H2170; first compound 1 µM): 0.65
- relative viability (NCI-H2347; first compound 0.01 µM): 0.509
- relative viability (NCI-H2347; first compound 0.03162 µM): 0.508
- relative viability (NCI-H2347; first compound 0.1 µM): 0.718
- relative viability (NCI-H2347; first compound 0.3162 µM): 0.607
- relative viability (NCI-H2347; first compound 1 µM): 0.551
- relative viability (NCI-H2405; first compound 0.01 µM): 0.729
- relative viability (NCI-H2405; first compound 0.03162 µM): 0.737
- relative viability (NCI-H2405; first compound 0.1 µM): 0.699
- relative viability (NCI-H2405; first compound 0.3162 µM): 0.733
- relative viability (NCI-H2405; first compound 1 µM): 0.695
- relative viability (NCI-H3122; first compound 0.01 µM): 0.559
- relative viability (NCI-H3122; first compound 0.03162 µM): 0.439
- relative viability (NCI-H3122; first compound 0.1 µM): 0.464
- relative viability (NCI-H3122; first compound 0.3162 µM): 0.326
- relative viability (NCI-H3122; first compound 1 µM): 0.364
- relative viability (NCI-H322M; first compound 0.01 µM): 0.717
- relative viability (NCI-H322M; first compound 0.03162 µM): 0.49
- relative viability (NCI-H322M; first compound 0.1 µM): 0.589
- relative viability (NCI-H322M; first compound 0.3162 µM): 0.57
- relative viability (NCI-H322M; first compound 1 µM): 0.448
- relative viability (NCI-H441; first compound 0.01 µM): 0.544
- relative viability (NCI-H441; first compound 0.03162 µM): 0.714
- relative viability (NCI-H441; first compound 0.1 µM): 0.821
- relative viability (NCI-H441; first compound 0.3162 µM): 0.616
- relative viability (NCI-H441; first compound 1 µM): 0.597
- relative viability (NCI-H520; first compound 0.01 µM): 0.383
- relative viability (NCI-H520; first compound 0.03162 µM): 0.452
- relative viability (NCI-H520; first compound 0.1 µM): 0.486
- relative viability (NCI-H520; first compound 0.3162 µM): 0.388
- relative viability (NCI-H520; first compound 1 µM): 0.261
- relative viability (NCI-H647; first compound 0.01 µM): 0.265
- relative viability (NCI-H647; first compound 0.03162 µM): 0.289
- relative viability (NCI-H647; first compound 0.1 µM): 0.113
- relative viability (NCI-H647; first compound 0.3162 µM): 0.332
- relative viability (NCI-H647; first compound 1 µM): 0.223
- relative viability (PC-14; first compound 0.01 µM): 0.689
- relative viability (PC-14; first compound 0.03162 µM): 0.578
- relative viability (PC-14; first compound 0.1 µM): 0.62
- relative viability (PC-14; first compound 0.3162 µM): 0.685
- relative viability (PC-14; first compound 1 µM): 0.598
- relative viability (SW 900; first compound 0.01 µM): 0.662
- relative viability (SW 900; first compound 0.03162 µM): 0.573
- relative viability (SW 900; first compound 0.3162 µM): 0.451
- relative viability (SW 900; first compound 1 µM): 0.382
- relative viability (UMC-11; first compound 0.01 µM): 0.214
- relative viability (UMC-11; first compound 0.03162 µM): 0.203
- relative viability (UMC-11; first compound 0.1 µM): 0.204
- relative viability (UMC-11; first compound 0.3162 µM): 0.195
- relative viability (UMC-11; first compound 1 µM): 0.196
